Measured values taken from a melting point compilation (Tetko et al.; mined from patent text by program, amines drawn as free bases though some values may be those of a salt).
Non-standard residues stand in square brackets, D forms with d. Residues, ends and D or L forms follow the SMILES beside them. ξ: configuration not given here. *: point of attachment. Cbz = O=C(OCc1ccccc1)*; Boc = CC(C)(C)OC(=O)*; Aib = CC(C)(N)C(=O)O; ξDap = NCC(N)C(=O)O

Row | melting point | SMILES
1 | 83 to 86 °C | C=Cc1ccc2ccccc2c1-c1ccc(O)c(OC)c1
2 | > 260 °C | O=C(CN1C(=O)c2ccccc2C1=O)NNC(=O)c1ncn2c1[C@@H]1CCN1C(=O)c1sccc1-2
3 | 110 to 112 °C | CCOC(=O)CC(c1cccnc1)N1CCN(CCCOc2ccc(C#N)cc2)C(=O)C1=O (configuration not stated)
4 | 166 to 168 °C | OC(Cn1c(-c2ccc(Cl)cc2)nc2cccnc21)c1ccccc1 (configuration not stated)
5 | 117 to 119 °C | CCOC(=O)C1=Cc2c(ccc(Cl)c2I)OC1C(F)(F)F (configuration not stated)
6 | 54 to 60 °C | CCc1cc2c(SCc3ccccc3)ncnc2s1
7 | 195 °C | NCCNS(=O)(=O)c1cc(NC(=O)c2cnn3c(C(F)(F)F)cc(-c4ccc(C(F)(F)F)cc4)nc23)c(Cl)s1
8 | 111 to 112 °C | CCN(CC)C(=O)CCc1cc(-c2ccc(Cl)cc2)n(-c2ccc(OC)cc2)n1
9 | 239 to 241 °C | CC1CNc2c(cnc3cc(Cl)ccc23)O1 (configuration not stated)
10 | 173 to 174 °C | CCC(=C(c1ccc(O)cc1)c1ccc(O)cc1)c1cccc(-c2c(C)noc2C)c1
11 | 165 to 166 °C | Cc1cc(-c2ccccc2)n2ncc(C(=O)c3ccccc3)c2n1
12 | 149 °C | CCOC(=O)CC(NC(=O)c1cccc(NC(=O)c2cnc(NC(=N)N)s2)c1)c1ccccc1 (racemic)
13 | 116 to 118 °C | CCCOCCOc1ccc(Oc2ccc3c(c2)C=C(C(=O)O)CCS3(=O)=O)cc1OCC
14 | 126 °C | C#CCn1c(=O)n(C2CCN(C(=O)OCC)CC2)c2ccc(Cl)cc21
15 | 225 °C | CC1(C)C=Cc2c(cc(O)c3c(=O)c4cc5ccccc5cc4[nH]c23)O1
16 | > 250 °C | c1csc(-c2ccnc(-c3cc(-c4cccs4)ccn3)c2)c1
17 | 172 to 174 °C | O=S(=O)(CC(F)(F)F)c1nc2ccccc2[nH]1
18 | 109 to 111 °C | CCOC(=O)C=C(N)C(C)(C)OC(N)=O
19 | 75 to 76 °C | CCCc1c(O)c(Cl)cc(C(=O)OC)c1O
20 | 56 to 59 °C | C#CCCCON1Sc2cccc3cccc1c23
21 | > 232 °C | CCC(CC)n1c(=O)sc2c(=O)[nH]c(N)nc21
22 | 87 to 88 °C | CCc1cc2c(-c3ccccc3Cl)c(N)cnc2s1
23 | 201 to 203 °C | Cc1c(C(=O)Nc2ccc(N3CCN(CCCc4cccnc4)CC3)c(C#N)c2)cnn1-c1ccc(Cl)cc1

Row | melting point | SMILES
24 | 139 to 140 °C | COC(=O)c1cc(-n2cnn(Cc3ccc(F)cc3)c2=O)nn1Cc1ccc(OC)cc1
25 | 272 to 274 °C | COCc1nc2cccc(C(=O)O)c2n1Cc1ccc(-c2ccccc2-c2nnn[nH]2)cc1
26 | > 270 °C | CC(C)(C)n1cc(C(=O)O)c(=O)c2cc(F)c(N3CCNCC3)nc21
27 | 180 to 186 °C | CC(=O)OCC(=O)C1(O)C(C)CC2C3CCC4=CC(=O)C=CC4(C)C34OC4CC21C (configuration not stated)
28 | 169 to 170 °C | CN(C)C(=O)C(c1ccc(N)cc1)C1(O)CCCCC1 (configuration not stated)
29 | 47 to 49 °C | Fc1ccc2c(c1)C(=C1SCCCS1)CCO2
30 | 42 to 43 °C | CCCCN(CCCC)C(=O)NCCc1ccc(-c2csc(N)n2)cc1
31 | 178 to 180 °C | CCCCc1nc2cccc(C(=O)O)c2n1Cc1ccc(-c2ccccc2-c2nc(=S)o[nH]2)cc1
32 | 155 °C | COC(=O)C1=C(CBr)Nc2ncnn2C1c1cccs1 (configuration not stated)
33 | 244 °C | Cc1cc(-c2cc(C(F)(F)F)n3ncc(C(=O)Nc4cccc(S(=O)(=O)NC5CC5)c4)c3n2)ccc1Cl
34 | 86 to 88 °C | C=C(C(=O)c1cc(-c2cccs2)ccc1OC)c1ccc(C#N)cc1
35 | 138 to 140 °C | CC(=O)c1cc(Cl)c(N=C=O)c(Cl)c1
36 | 84 to 85 °C | CC(C)(C)OC(=O)N[C@@H](CC1CCCCC1)[C@H](O)c1ccccn1
37 | 110 to 111 °C | CCCc1nc(NC(=O)N(C)C)nc(N2CCOCC2)n1
38 | 114 to 116 °C | O=C(c1ccc(-c2ccc(C(CC3CCOCC3)c3ccc(S(=O)(=O)C4CC4)cc3)[nH]2)nc1)N1CCOCC1 (configuration not stated)
39 | 195 to 197 °C | CCn1c2ccccc2c2cc(NC(C)=O)ccc21
40 | 148 to 149 °C | NNC1=NOCc2ccc(Cl)cc21
41 | 143 to 145 °C | CS(=O)(=O)c1ccc(-c2ccc(C=C(Cl)Cl)s2)cc1
42 | 138 to 139 °C | CC(C)(C)OC(=O)N1CCC2(CC1)CC(=O)N(OCC#N)C2=O
43 | 182 to 183 °C | CCC(=O)Nc1ccc(C(=O)[C@H]2C[C@H]2C(=O)O)cc1 (relative stereo)
44 | 69 to 71 °C | COc1c(C(C)(C)C)cc(C(C)=O)c(O)c1Br
45 | 134 to 137 °C | CC1(C)CCCC(C)(C)N1c1nc(N2CCCC2)cc(N2CCNCC2)n1
46 | 92 to 94 °C | CCCc1c(COc2ccc(Cc3nnn(CCCC(=O)O)n3)cc2)ccc(C(C)=O)c1O

Row | melting point | SMILES
47 | 76 to 78 °C | CNCc1ccc(S(C)(=O)=O)c(S(=O)(=O)NC(C)(C)C)c1
48 | 141 °C | COC(=O)c1cc(C)cc(-c2cccs2)c1NS(=O)(=O)c1ccc(OC)cc1
49 | 170 to 172 °C | FC(F)(F)CNC(=S)Nc1cncc(Cl)n1
50 | 167 to 169 °C | COC(=O)C1=C(C)NC(C)=C(C(=O)OCC(C)(C)CN(C)C)C1c1cccc([N+](=O)[O-])c1Cl (configuration not stated)
51 | 74 to 75 °C | Cc1nc(N)ccc1Cl
52 | 93 to 97 °C | COc1ccc(OC(C)=O)cc1[N+](=O)[O-]
53 | 86 to 88 °C | CCCCc1ncc(CO)n1Cc1ccccc1Cl
54 | 94 to 98 °C | Clc1cc(NC2CCCC2)nc(NC2CCCC2)n1
55 | 159 to 161 °C | O=C(O)c1cc(Br)cc([N+](=O)[O-])c1NCc1ccccc1Cl
56 | 315 to 316 °C | COc1cc(Nc2c(C#N)cnc3cc(/C=C/n4nccn4)sc23)c(Cl)cc1Cl
57 | 168 to 170 °C | CCC(=O)N1CCC(COc2cccc3nc(C)c(C(=O)O)c(N)c23)CC1
58 | 298 to 301 °C | CC(=O)Nc1cccc(-c2nn3cnnc3cc2C)c1
59 | 104 to 105 °C | COCC1CN(c2ccc(C3CCC(OC(=O)c4ccccc4)CC3)cc2)C(=O)O1 (racemic)
60 | 107 °C | c1ccc2c(c1)OC(c1ccc(OCCN3CCCCC3)cc1)c1c-2sc2ccccc12 (configuration not stated)
61 | 185 to 186 °C | Cc1ccccc1C(CCC(=O)O)Oc1cc(OCc2cccnc2)ccc1C(=O)c1ccccc1 (configuration not stated)
62 | 205 to 208 °C | CC(=O)Nc1cccc(-c2c(C)c(NC(=O)CC(C)(C)C)c(C)c3c2OCC3c2ccc(C(C)C)cc2)n1 (configuration not stated)
63 | 93 °C | COc1c(Cl)cc(NC(=O)OCCCl)c(OC)c1[N+](=O)[O-]
64 | 122 to 124 °C | CCCCNCC1CCn2c(nc3ccccc32)S1 (configuration not stated)
65 | 70 to 72 °C | CCCCOCC1OC(n2c(Cl)nc3cc(Cl)c(Cl)cc32)C(O)C1O (configuration not stated)
66 | 134 to 135 °C | COc1ccc(-c2c(Cl)c(CNC(C)(C)C)nc3sc4c(c23)CCN(Cc2ccccc2)C4)cc1OC
67 | 184 to 186 °C | Cc1cc(C2=NCCO2)cc(C)c1O
68 | 283 °C | CNC(=O)c1ccccc1Nc1nc(Nc2ccc3c(c2)CCCC(=O)N3)ncc1Cl
69 | 85 to 87 °C | CCN(CC)c1ccc2cc(N)c(=O)oc2c1

Row | melting point | SMILES
70 | 146 °C | CC(C)CNC(=O)COC1c2ccccc2C(=O)N1c1ccc2ccc(Cl)nc2n1 (configuration not stated)
71 | 208 to 210 °C | Cc1[nH]c2ccccc2c1CCCN1CCC(c2noc3cc(F)ccc23)CC1
72 | 134 to 136 °C | Fc1ccc(OC2CCN(CCc3c[nH]c4ccc(OCc5ccccc5)cc34)CC2)cc1
73 | 78 to 80 °C | CCN(CC)Cc1csc(N)c1C(=O)c1ccc(Cl)cc1
74 | 258 °C | CC1(C)CCCN(C(=O)[C@H]2C[C@@H](S(=O)(=O)c3ccccc3)[C@@H](c3ccccc3F)N2C(=O)CNC(=O)Nc2cccc(C(=O)O)c2)C1 (racemic)
75 | 248 to 250 °C | COc1cc2c(Nc3ccc(Cl)cc3F)ncnc2cc1OCCCC(=O)N1CCN(C)CC1
76 | 210 °C | COc1ccc2cc(-c3ccc(Cl)c(-n4nc(C)nc4C)c3)c(=O)oc2c1
77 | 140 to 142 °C | O=C(CCCCCCNC(=O)C(=O)c1cn2c3c(cccc13)CCC2)NOC1CCCCO1 (configuration not stated)
78 | 82 to 86 °C | COc1ccc(OP(Oc2ccc(OC)cc2C(C)(C)C)Oc2ccc(OC)cc2C(C)(C)C)c(C(C)(C)C)c1
79 | 85 to 90 °C | Cc1noc(NS(=O)(=O)c2ccccc2-c2ccc(-c3ccno3)cc2)c1C
80 | 91 to 95 °C | CC(=O)SCCC(=O)N1[C@@H](c2ccccc2O)SC[C@H]1C(=O)N(c1ccccc1)[C@@H](C)C(=O)O
81 | 240 to 241 °C | Nc1c(-c2ccc(Cl)cc2)nc2ccc(Cl)cc2c1C(=O)O
82 | 135 to 136 °C | Cc1oc(-c2ccco2)nc1COc1ccc(Cn2cc(CC(=O)O)c(-c3ccccc3)n2)cn1
83 | 100 to 101 °C | COC(=O)C(CNC(=O)OC(C)(C)C)NC(=O)C(C)(C)NC(=O)OCc1ccccc1 (configuration not stated) (Cbz-[Aib]-[ξDap](Boc)-OMe)
84 | 150 to 153 °C | COc1ccc(NC(=O)c2ccc(-c3ccc(-c4noc(C)n4)cc3C)cc2)cc1OCCN
85 | 167 to 169 °C | CN(C)c1cccc(-c2cccc(-c3ccnc4c(C(=O)c5cccs5)cnn34)c2)c1
86 | 169 to 170 °C | CC(C)(C)c1ccc(S(=O)(=O)Nc2cc(OCCO)ncn2)cc1
87 | 163 to 167 °C | O=C1Nc2ccccc2CCC1Cl (configuration not stated)
88 | 179 °C | COc1ccc(C2=NN(Cc3cccc(C(=O)NC4CCCC4)c3)C(=O)CC2)cc1OC
89 | 129 to 133 °C | N#Cc1ncccc1-c1nc2cccnc2o1
90 | 152 to 154 °C | CNC(=O)c1ccccc1Nc1nc(Nc2cc3c(cc2OC)C(=O)N(C)CCC3)ncc1Cl
91 | 109 to 110 °C | N#CCCOc1cccc(OCCC#N)c1
92 | 205 to 206 °C | CCCCc1ccc(C(=O)Oc2ccc(C(=O)O)cc2)cc1C12CC3CC(CC(C3)C1)C2

Row | SMILES | melting point
93 | O=C(CCl)Nc1ccccc1O | 133 to 134 °C
94 | C=C1C[C@@H]2[C@H](CC[C@]3(C)C(=O)CC[C@@H]23)[C@@]2(C)CCC(=O)C(S)=C12 | 195 to 197 °C
95 | O=C(CCl)NCC1CCCCC1 | 85 to 86 °C
96 | COc1cc(C(C)=O)ccc1OCCCN1C2CCC1CC(c1n[nH]c3ccccc13)C2 (configuration not stated) | 173 to 175 °C
97 | COC(=O)c1cncn1C1CCCc2ccccc21 (configuration not stated) | 63 °C
